The assay has as its target T1, p300 (Homo sapiens, UniProt Q09472).
T1 construct: host or cells: A549 P300 HiBit cells
In words: P300 degradation, HiBit technology in A549 P300 HiBit cells (2 h). In kind it is cell-based. As to conditions: 2 hrs post treatment; for Dmax: A549, A549 P300 HiBit cells; for DC50: A549 P300 HiBit cells. Put shortly: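 Cells: A549 HiBiT-tagged lines, 0.2×10^4/well, F-12K + 10% HI-FBS, equilibrated overnight. Tx: serial dilution of cpd (10 mM DMSO stock). Readout: HiBiT lytic reagent, 10 min RT shaking, luminescence → potency, Dmax.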
(In general: With HiBiT, luminescence reflects the tagged protein that the partner subunit can reach.)

Among the data in patent US20250114345A1, “COMPOUNDS AND COMPOSITIONS AS CBP/P300 DEGRADERS AND USES THEREOF” (Oncopia Therapeutics, Inc. d/b/a/ SK Life Science Labs, priority 2023, published 2025) are Dmax and DC50 values, retold here.

T1 sequence (Q09472 whole entry): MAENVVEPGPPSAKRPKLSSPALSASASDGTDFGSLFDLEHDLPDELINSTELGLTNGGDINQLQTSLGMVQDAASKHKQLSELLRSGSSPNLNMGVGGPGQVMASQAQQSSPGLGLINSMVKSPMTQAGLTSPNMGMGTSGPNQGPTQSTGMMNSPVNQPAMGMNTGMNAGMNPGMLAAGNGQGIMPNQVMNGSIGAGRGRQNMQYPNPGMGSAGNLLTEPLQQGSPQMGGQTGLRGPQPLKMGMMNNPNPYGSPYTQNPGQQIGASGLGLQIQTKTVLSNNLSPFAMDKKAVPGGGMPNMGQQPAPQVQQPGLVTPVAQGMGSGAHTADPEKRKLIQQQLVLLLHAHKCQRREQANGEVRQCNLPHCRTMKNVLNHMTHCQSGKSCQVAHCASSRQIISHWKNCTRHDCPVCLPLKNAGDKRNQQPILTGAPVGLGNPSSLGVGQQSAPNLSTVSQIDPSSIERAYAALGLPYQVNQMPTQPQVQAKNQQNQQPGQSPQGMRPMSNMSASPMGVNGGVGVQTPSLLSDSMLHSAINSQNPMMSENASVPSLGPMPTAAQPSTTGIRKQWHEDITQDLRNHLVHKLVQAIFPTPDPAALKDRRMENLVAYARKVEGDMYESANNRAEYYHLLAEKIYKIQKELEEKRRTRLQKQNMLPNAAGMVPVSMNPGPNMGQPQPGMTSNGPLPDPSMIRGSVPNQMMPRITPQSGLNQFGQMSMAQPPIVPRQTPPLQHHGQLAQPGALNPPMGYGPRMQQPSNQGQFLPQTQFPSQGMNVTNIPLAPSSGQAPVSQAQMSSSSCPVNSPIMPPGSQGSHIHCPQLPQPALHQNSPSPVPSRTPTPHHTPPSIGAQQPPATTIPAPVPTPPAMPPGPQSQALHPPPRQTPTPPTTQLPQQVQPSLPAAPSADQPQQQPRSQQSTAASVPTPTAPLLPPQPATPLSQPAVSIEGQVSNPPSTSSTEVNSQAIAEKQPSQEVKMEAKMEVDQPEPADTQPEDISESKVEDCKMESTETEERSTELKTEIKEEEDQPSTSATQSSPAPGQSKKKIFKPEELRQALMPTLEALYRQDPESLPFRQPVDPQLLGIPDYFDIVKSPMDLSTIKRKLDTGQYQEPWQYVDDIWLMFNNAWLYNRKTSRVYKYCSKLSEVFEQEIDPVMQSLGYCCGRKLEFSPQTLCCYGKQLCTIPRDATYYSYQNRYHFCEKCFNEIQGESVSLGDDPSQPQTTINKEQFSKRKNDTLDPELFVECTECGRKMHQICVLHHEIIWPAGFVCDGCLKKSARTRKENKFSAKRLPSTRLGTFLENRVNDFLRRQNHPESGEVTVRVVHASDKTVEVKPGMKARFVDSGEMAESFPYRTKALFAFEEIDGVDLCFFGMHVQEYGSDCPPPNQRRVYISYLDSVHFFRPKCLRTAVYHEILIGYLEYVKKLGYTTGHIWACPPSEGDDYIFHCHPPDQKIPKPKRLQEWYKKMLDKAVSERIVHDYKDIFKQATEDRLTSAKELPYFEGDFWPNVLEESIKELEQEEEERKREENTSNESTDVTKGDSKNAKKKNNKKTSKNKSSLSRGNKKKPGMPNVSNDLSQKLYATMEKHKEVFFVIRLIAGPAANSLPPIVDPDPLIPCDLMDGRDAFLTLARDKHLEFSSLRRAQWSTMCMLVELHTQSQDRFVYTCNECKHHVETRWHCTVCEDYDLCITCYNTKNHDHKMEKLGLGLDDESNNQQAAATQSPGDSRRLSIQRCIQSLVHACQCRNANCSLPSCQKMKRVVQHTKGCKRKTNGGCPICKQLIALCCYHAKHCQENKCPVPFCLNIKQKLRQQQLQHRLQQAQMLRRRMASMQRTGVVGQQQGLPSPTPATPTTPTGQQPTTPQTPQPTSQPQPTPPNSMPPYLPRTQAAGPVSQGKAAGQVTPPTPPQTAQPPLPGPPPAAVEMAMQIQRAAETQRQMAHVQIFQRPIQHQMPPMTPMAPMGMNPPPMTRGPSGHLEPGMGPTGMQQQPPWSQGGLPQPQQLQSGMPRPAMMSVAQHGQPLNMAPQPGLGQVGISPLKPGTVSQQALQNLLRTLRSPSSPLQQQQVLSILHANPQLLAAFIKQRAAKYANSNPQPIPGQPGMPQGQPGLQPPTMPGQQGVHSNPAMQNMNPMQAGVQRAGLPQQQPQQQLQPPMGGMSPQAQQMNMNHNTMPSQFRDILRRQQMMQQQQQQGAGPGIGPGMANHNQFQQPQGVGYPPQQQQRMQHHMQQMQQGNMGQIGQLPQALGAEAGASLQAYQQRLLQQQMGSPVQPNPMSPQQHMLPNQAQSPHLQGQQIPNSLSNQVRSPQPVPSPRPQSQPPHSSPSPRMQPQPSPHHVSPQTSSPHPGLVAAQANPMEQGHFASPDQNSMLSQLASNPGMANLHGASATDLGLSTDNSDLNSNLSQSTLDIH

The compound `Cc1cc(-c2cnc(N(C)c3cc(C(C)C)c4c(c3)n(C)c(=O)n4C)cn2)cnc1C(=O)NCC#Cc1cccc(NC2CCC(=O)NC2=O)c1` (centres unmarked) [Example A50, N-(3-(3-((2,6-dioxopiperidin-3-yl)amino)phenyl)prop-2-yn-1-yl)-5-(5-((7-isopropyl-1,3-dimethyl-2-oxo-2,3-dihydro-1H-benzo [d]imidazol-5-yl)(methyl)amino)pyrazin-2-yl)-3-methylpicolinamide] showed a Dmax greater than 80% and a 50% degradation concentration (DC50) of 10 to 99 nM.
Turning to `Cn1c(=O)n(C)c2cc(-c3cccc4cc(-c5ccc(C(=O)NCC#Cc6cc7c(C8CCC(=O)NC8=O)cccc7o6)nc5)ncc34)ncc21` (centres unmarked) [Example A179, 5-(8-(1,3-dimethyl-2-oxo-2,3-dihydro-1H-imidazo[4,5-c]pyridin-6-yl)isoquinolin-3-yl)-N-(3-(4-(2,6-dioxopiperidin-3-yl)benzofuran-2-yl)prop-2-yn-1-yl)picolinamide], the Dmax fell in the range of 60 to 79% and the 50% degradation concentration (DC50) lay in the range of 1 to 9.9 nM.
`CC(C)c1cc(-c2cccc3cc(-c4ccc(C(=O)NCC#Cc5ccc6c(c5)ncn6C5CCC(=O)NC5=O)nc4)ncc23)cc2c1n(C)c(=O)n2C` (centres unmarked) [Example A38, N-(3-(1-(2,6-Dioxopiperidin-3-yl)-1H-benzo[d]imidazol-5-yl)prop-2-yn-1-yl)-5-(8-(7-isopropyl-1,3-dimethyl-2-oxo-2,3-dihydro-1H-benzo[d]imidazol-5-yl)isoquinolin-3-yl)picolinamide] yielded a Dmax of less than 20% and a 50% degradation concentration (DC50) greater than 1000 nM.
In turn, `Cc1cc(-c2ncc(N(C)c3cc(C4CCOCC4)c4c(c3)n(C)c(=O)n4C)cn2)cnc1C(=O)NCC#Cc1ccc2occ(C34CC(C3)C(=O)NC4=O)c2c1` [Example A201, 5-(5-((1,3-dimethyl-2-oxo-7-(tetrahydro-2H-pyran-4-yl)-2,3-dihydro-1H-benzo[d]imidazol-5-yl)(methyl)amino)pyrimidin-2-yl)-N-(3-(3-(2,4-dioxo-3-azabicyclo[3.1.1]heptan-1-yl)benzofuran-5-yl)prop-2-yn-1-yl)-3-methylpicolinamide] had a maximal degradation (Dmax) greater than 80% and a 50% degradation concentration (DC50) of 1 to 9.9 nM.
For the compound `Cn1cc(-c2ccc3c(c2)n(C)c(=O)n3C)c2cnc(-c3ccc(C(=O)NCC#Cc4ccc5occ(C6CCC(=O)NC6=O)c5c4)nc3)cc2c1=O` (centres unmarked) [Example A129, 5-(8-(1,3-dimethyl-2-oxo-2,3-dihydro-1H-benzo[d]imidazol-5-yl)-6-methyl-5-oxo-5,6-dihydro-2,6-naphthyridin-3-yl)-N-(3-(3-(2,6-dioxo-piperidin-3-yl)benzo-furan-5-yl)prop-2-yn-1-yl)picolinamide], the Dmax was greater than 80% and the half-maximal degradation concentration (DC50) was in the range of 1 to 9.9 nM.
In turn, `CCc1cc(N(C)c2ccc(-c3cnc(C(=O)NCC#Cc4cccc(NC5CCC(=O)NC5=O)c4)c(C)c3)c(F)c2)c2cc(C)c(=O)n(C)c2c1` (centres unmarked) [Example B19, N-(3-(3-((2,6-Dioxopiperidin-3-yl)amino)phenyl)prop-2-yn-1-yl)-5-(4-((7-ethyl-1,3-dimethyl-2-oxo-1,2-dihydroquinolin-5-yl)(methyl)amino)-2-fluorophenyl)-3-methylpicolinamide] returned a Dmax greater than 80% and a 50% degradation concentration (DC50) of 10 to 99 nM.
The compound `Cc1cc(-c2ccc(Nc3cc4c(c(C(C)C)n3)n(C)c(=O)n4C)cn2)cnc1C(=O)NCC#Cc1ccc2occ(C3CCC(=O)NC3=O)c2c1` (centres unmarked) [Example A56, N-(3-(3-(2,6-dioxopiperidin-3-yl)benzofuran-5-yl)prop-2-yn-1-yl)-5-((4-isopropyl-1,3-dimethyl-2-oxo-2,3-dihydro-1H-imidazo[4,5-c]pyridin-6-yl)amino)-5′-methyl-[2,3′-bipyridine]-6′-carboxamide] showed a Dmax of less than 20% and a half-maximal degradation concentration (DC50) greater than 1000 nM.
`Cc1cc2c(N3CCCc4cc(-c5ccc(C(=O)NCC#Cc6cc7c(C8CCC(=O)NC8=O)cccc7o6)nc5)nnc43)cccc2n(C)c1=O` (centres unmarked) [Example B34, 5-(8-(1,3-dimethyl-2-oxo-1,2-dihydroquinolin-5-yl)-5,6,7,8-tetrahydropyrido[2,3-c]pyridazin-3-yl)-N-(3-(4-(2,6-dioxopiperidin-3-yl)benzofuran-2-yl)prop-2-yn-1-yl)picolinamide] came in with a Dmax greater than 80% and a DC50 of less than 1 nM.
`Cc1cc2c(N3CCCc4nc(-c5ccc(C(=O)NCC#Cc6ccc7occ(C8CCC(=O)NC8=O)c7c6)nc5)ncc43)cc(C3CCN(C(=O)C4CCOCC4)CC3)cc2n(C)c1=O` (centres unmarked) [Example B150, 5-(5-(1,3-dimethyl-2-oxo-7-(1-(tetrahydro-2H-pyran-4-carbonyl)piperidin-4-yl)-1,2-dihydro-quinolin-5-yl)-5,6,7,8-tetrahydropyrido[3,2-d]pyrimidin-2-yl)-N-(3-(3-(2,6-dioxopiperidin-3-yl)benzofuran-5-yl)prop-2-yn-1-yl) picolinamide] showed a Dmax of 60 to 79% and a DC50 of 1 to 9.9 nM.
For the compound `Cn1c(=O)n(C)c2c(C3CCOCC3)nc(N3CCCc4nc(-c5ccc(C(=O)NCC#Cc6ccc7occ(C8CCC(=O)NC8=O)c7c6)nc5)ncc43)cc21` (centres unmarked) [Example A78, 5-(5-(1,3-dimethyl-2-oxo-4-(tetrahydro-2H-pyran-4-yl)-2,3-dihydro-1H-imidazo[4,5-c]pyridin-6-yl)-5,6,7,8-tetrahydro-pyrido[3,2-d]pyrimidin-2-yl)-N-(3-(3-(2,6-dioxopiperidin-3-yl)benzofuran-5-yl)prop-2-yn-1-yl)picolinamide], the maximal degradation (Dmax) is less than 20% and the DC50 is greater than 1000 nM.
In turn, `Cc1cc(-c2cc(N(C)C)c(N(C)c3cc(C4CCOCC4)c4c(c3)n(C)c(=O)n4C)cn2)cnc1C(=O)NCC#Cc1cc2c(C3CCC(=O)NC3=O)cccc2o1` (centres unmarked) [Example A198, 5-((1,3-dimethyl-2-oxo-7-(tetrahydro-2H-pyran-4-yl)-2,3-dihydro-1H-benzo[d]imidazol-5-yl)(methyl)amino)-4-(dimethylamino)-N-(3-(4-(2,6-dioxopiperidin-3-yl)benzofuran-2-yl)prop-2-yn-1-yl)-5′-methyl-[2,3′-bipyridine]-6′-carboxamide] gave a Dmax of less than 20% and a DC50 greater than 1000 nM.
In turn, `CCc1cc(-c2cccc3cc(-c4ccc(C(=O)NCC#Cc5cc6c(cnn6C6CCC(=O)NC6=O)cc5C)nc4)ncc23)c2cc(C)c(=O)n(C)c2c1` (centres unmarked) [Example B3, N-(3-(1-(2,6-Dioxopiperidin-3-yl)-5-methyl-1H-indazol-6-yl)prop-2-yn-1-yl)-5-(8-(7-ethyl-1,3-dimethyl-2-oxo-1,2-dihydroquinolin-5-yl)isoquinolin-3-yl)picolinamide] displayed a Dmax of 20 to 39% and a 50% degradation concentration (DC50) of 10 to 99 nM.
In the case of `Cc1cc2c(N3CCCc4nc(-c5ccc(C(=O)NCC#Cc6cc7c(C8CCC(=O)NC8=O)cccc7o6)nc5)ncc43)nc(N3CC4CC4C3)cc2n(C)c1=O` (centres unmarked) [Example B172, 5-(5-(7-(3-azabicyclo[3.1.0]hexan-3-yl)-1,3-dimethyl-2-oxo-1,2-dihydro-1,6-naphthyridin-5-yl)-5,6,7,8-tetrahydropyrido[3,2-d]pyrimidin-2-yl)-N-(3-(4-(2,6-dioxopiperidin-3-yl)benzofuran-2-yl)prop-2-yn-1-yl)picolinamide], the greatest degradation seen (Dmax) is greater than 80% and the DC50 lay in the range of 10 to 99 nM.

The Dmax is the greatest extent of degradation seen. The low end stands for a partial loss of target, the high end for a fuller loss of target. A word on the DC50: it is the concentration at which degradation of the target reaches its halfway point. The low end stands for a more potent degrader, the high end for a less potent degrader.
